According to publication PMC5609913, “Structure based design, synthesis and activity studies of small hybrid molecules as HDAC and G9a dual inhibitors” (Oncotarget, 2017):

What was measured:
A549 cells = assay: Cell anti-proliferation / toxicity assay (CCK-8), A549; assay type: cell-based; settings: Homo sapiens
Experimental: (§1) Cell anti-proliferation assays were performed to determine the toxicity of these inhibitors. […] These compounds were further evaluated against the control cell line HEK293 to test their toxicity with a non-cancerous cell line.
(§2) And then the cells were exposed to the different inhibitors with various concentrations for 72 h. […] EC50s were calculated using GraphPad Prizm statistical package with sigmoidal variable slope dose response curve fit.

HEK293 cells = assay: Cell anti-proliferation / toxicity assay (CCK-8), HEK293 normal cell line; assay type: cell-based; settings: Homo sapiens, Table 6, 72 h
Experimental: as §1, §2

[1] = Table 6, 72 h, >100 = not reached at highest tested concentration (100 μM)

SMILES: COc1ccc2c(NC3CCN(Cc4ccccc4)CC3)nc(NCCNC(=O)CCCCCCC(=O)NO)nc2c1 [Compound 13, N1-(2-((4-((1-benzylpiperidin-4-yl)amino)-7-methoxyquinazolin-2-yl)amino)ethyl)-N8-hydroxyoctanediamide]
- EC50 (A549 cells; [1]): > 100 µM
- EC50 (HEK293 cells): 57 ± 1.12 µM

SMILES: COc1ccc2c(NC3CCN(Cc4ccccc4)CC3)nc(NCCNC(=O)CCCCCC(=O)NO)nc2c1 [Compound 14, N1-(2-((4-((1-benzylpiperidin-4-yl)amino)-7-methoxyquinazolin-2-yl)amino)ethyl)-N7-hydroxyheptanediamide]
- EC50 (A549 cells; [1]): 36.2 ± 1.76 µM
- EC50 (HEK293 cells): 19.95 ± 0.19 µM

SMILES: COc1ccc2c(NC3CCN(Cc4ccccc4)CC3)nc(NCCNC(=O)CCCC(=O)NO)nc2c1 [Compound 16, N1-(2-((4-((1-benzylpiperidin-4-yl)amino)-7-methoxyquinazolin-2-yl)amino)ethyl)-N5-hydroxyglutaramide]
- EC50 (A549 cells; Supplementary Table 4, 72 h, NA = not active up to highest concentration tested (100 μM)): > 100 µM
